Test system: ferricytochrome C
Experiment: Control experiments: direct reduction of ferricytochrome C by the product itself
Type: biochemical
Conditions: effect not quantifiable
Excerpt: This effect not being quantifiable, no conclusion can consequently be drawn on a possible inhibiting effect of these products on the production of the superoxide anion by the activated PMNs.

## O=c1ccc2cc(O[C@@H]3O[C@H](CO)[C@@H](O)[C@H](O)[C@H]3O)c(O)cc2o1 [esculoside, reference compound]
  Direct reduction of ferricytochrome C: powerful reducers of ferricytochrome C

— patent publication US5670538A, “Use of prodelphinidins for obtaining medicaments intended for the treatment of arthrosis” (Laboratoires Dolisos, priority 1992, dated 1997)
